Laboratory results from patent publication US20230117470A1, “SUBSTITUTED PYRAZOLE COMPOUNDS AS TOLL RECEPTOR INHIBITORS” (BRISTOL-MYERS SQUIBB COMPANY, priority 2019, published 2023).
pIC50: −log10 of the molar value.

Legend:
Format in all cases: cell-based
human TLR9 = target: T1, human TLR9 (Homo sapiens, UniProt Q9NR96); assay: TLR9 inhibition reporter assay (HEK-Blue cells, SEAP reporter, ODN2006 stimulation); conditions: HEK-Blue cells overexpressing human TLR9, SEAP reporter, ODN2006 5 nM
T1 construct: host or cells: HEK-Blue cells
T1 sequence (Q9NR96 26-1032): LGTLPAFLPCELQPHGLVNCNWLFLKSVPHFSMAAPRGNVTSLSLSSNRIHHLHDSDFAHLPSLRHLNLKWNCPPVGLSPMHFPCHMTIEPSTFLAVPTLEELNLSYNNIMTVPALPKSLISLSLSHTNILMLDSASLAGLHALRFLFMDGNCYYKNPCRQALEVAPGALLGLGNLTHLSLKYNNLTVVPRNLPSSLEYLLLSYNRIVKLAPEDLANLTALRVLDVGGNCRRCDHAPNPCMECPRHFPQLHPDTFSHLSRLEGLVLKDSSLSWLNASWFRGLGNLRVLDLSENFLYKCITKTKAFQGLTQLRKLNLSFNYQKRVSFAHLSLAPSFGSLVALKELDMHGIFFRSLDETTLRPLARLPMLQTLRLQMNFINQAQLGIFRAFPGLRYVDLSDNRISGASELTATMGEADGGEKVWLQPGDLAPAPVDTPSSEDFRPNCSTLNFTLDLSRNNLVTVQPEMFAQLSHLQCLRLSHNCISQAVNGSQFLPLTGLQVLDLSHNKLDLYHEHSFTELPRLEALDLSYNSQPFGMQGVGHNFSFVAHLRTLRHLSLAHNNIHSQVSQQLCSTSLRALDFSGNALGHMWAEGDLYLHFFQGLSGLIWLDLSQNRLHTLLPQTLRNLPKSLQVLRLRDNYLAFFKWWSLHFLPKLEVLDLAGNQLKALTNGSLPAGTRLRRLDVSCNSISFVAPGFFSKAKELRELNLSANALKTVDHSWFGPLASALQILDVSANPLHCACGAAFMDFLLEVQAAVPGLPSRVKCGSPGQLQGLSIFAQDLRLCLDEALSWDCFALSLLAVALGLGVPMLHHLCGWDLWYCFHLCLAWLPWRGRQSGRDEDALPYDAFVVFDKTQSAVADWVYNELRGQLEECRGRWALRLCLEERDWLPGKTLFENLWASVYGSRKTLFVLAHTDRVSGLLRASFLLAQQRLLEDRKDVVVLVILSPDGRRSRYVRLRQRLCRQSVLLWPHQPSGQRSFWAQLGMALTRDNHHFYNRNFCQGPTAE
Procedure, shortened: (§1)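 30 min RT cpd pre-incubation (0.05 nM–50 μM final dose response) → agonist: gardiquimod 7.5 μM / R848 15.9 μM / ODN2006 5 nM for TLR7/8/9 resp. → 22 h, 37° C → SEAP via detection medium. % inhibition vs agonist+DMSO and reference inhibitor controls.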

human TLR7 = target: T2, human TLR7 (Homo sapiens, UniProt Q9NYK1); assay: TLR7 inhibition reporter assay (HEK-Blue cells, SEAP reporter, gardiquimod stimulation); conditions: HEK-Blue cells overexpressing human TLR7, SEAP reporter, gardiquimod 7.5 μM
T2 construct: host or cells: HEK-Blue cells
T2 sequence (Q9NYK1 27-1049): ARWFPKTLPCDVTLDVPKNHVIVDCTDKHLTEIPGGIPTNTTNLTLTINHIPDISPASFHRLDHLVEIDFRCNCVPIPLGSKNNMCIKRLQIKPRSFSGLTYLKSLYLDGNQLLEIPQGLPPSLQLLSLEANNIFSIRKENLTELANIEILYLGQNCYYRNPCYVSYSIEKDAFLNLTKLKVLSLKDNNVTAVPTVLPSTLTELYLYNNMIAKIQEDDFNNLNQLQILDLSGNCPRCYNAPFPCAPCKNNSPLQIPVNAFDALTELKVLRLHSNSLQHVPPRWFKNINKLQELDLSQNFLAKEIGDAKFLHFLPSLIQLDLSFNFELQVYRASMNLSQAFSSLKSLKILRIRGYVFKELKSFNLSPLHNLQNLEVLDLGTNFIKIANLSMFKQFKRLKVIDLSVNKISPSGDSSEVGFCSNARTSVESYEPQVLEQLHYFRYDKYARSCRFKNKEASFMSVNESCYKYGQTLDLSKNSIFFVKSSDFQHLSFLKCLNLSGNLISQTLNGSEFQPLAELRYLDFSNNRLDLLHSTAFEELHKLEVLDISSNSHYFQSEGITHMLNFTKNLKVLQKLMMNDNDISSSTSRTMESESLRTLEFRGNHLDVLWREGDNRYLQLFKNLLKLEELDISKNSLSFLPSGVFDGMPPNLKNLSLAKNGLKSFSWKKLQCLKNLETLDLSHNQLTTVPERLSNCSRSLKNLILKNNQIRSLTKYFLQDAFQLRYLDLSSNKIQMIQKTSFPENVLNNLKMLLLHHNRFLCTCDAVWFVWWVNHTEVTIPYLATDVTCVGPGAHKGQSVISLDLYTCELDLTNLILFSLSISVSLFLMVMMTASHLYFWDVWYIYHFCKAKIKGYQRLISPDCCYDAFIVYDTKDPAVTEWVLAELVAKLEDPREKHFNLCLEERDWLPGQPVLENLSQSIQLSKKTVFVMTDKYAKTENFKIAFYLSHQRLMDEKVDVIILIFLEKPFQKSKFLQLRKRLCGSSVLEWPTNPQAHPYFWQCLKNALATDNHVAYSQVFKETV
Procedure, shortened: as §1

human TLR8 = target: T3, human TLR8 (Homo sapiens, UniProt Q9NR97); assay: TLR8 inhibition reporter assay (HEK-Blue cells, SEAP reporter, R848 stimulation); conditions: HEK-Blue cells overexpressing human TLR8, SEAP reporter, R848 15.9 μM
T3 construct: host or cells: HEK-Blue cells
T3 sequence (Q9NR97 27-1041): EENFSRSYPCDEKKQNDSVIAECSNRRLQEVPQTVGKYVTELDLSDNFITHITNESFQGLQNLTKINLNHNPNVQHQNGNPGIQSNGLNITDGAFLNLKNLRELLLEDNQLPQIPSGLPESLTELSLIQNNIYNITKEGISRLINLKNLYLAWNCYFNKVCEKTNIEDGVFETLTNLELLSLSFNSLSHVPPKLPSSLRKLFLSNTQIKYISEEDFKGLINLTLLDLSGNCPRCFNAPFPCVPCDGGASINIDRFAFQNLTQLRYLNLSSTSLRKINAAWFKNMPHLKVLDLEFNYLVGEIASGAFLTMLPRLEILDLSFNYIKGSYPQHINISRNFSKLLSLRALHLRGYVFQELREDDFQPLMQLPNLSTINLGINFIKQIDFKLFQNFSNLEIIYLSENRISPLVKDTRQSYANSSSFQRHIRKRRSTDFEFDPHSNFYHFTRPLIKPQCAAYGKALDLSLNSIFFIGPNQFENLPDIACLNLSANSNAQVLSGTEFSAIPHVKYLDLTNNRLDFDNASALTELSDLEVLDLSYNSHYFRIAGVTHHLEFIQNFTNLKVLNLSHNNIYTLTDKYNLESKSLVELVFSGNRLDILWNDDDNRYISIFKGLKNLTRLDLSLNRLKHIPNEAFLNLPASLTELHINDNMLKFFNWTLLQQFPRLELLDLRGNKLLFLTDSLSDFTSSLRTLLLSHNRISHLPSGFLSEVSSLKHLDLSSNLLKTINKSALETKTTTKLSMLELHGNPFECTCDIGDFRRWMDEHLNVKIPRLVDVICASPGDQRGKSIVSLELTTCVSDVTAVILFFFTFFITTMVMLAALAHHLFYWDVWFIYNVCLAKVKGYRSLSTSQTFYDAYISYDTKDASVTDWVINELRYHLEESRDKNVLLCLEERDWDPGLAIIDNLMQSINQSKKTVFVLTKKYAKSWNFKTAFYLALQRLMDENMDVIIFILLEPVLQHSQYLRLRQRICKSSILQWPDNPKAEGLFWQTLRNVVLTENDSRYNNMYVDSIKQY
Procedure, shortened: as §1

| pIC50 (human TLR9) | pIC50 (human TLR7) | pIC50 (human TLR8) | Structure (SMILES) |
| --- | --- | --- | --- |
| < 4.30 | 7.65 | 8.41 | Cc1cc(-c2[nH]nc(-c3ccc(C4CCN(C(=O)CN(C)C)CC4)cc3)c2C(C)C)cn2ncnc12 [Example 323, 2-(dimethylamino)-1-(4-(4-(4-isopropyl-5-(8-methyl-[1,2,4]triazolo[1,5-a]pyridin-6-yl)-1H-pyrazol-3-yl)phenyl)piperidin-1-yl)ethan-1-one] |
| 5.17 | 8.47 | 7.39 | Cc1cc(-c2[nH]nc(C(=O)NCC3CN(CC4(C)COC4)CCO3)c2C(C)C)cn2ncnc12 (stereo not drawn) [Example 137] |
| 5.12 | 8.50 | 9.34 | Cc1cc(-c2[nH]nc(C3CCC(N4CCC(N(C)C)CC4)CC3)c2C(C)C)cn2ncnc12 (single isomer, unassigned) [Example 292] |
| 5.35 | 9.09 | 8.74 | Cc1cc(-c2[nH]nc(C(=O)N[C@H]3CC[C@@H](NCCCC(F)(F)F)CC3)c2C(C)C)cn2ncnc12 [Example 88] |
| < 4.30 | 8.23 | 7.33 | Cc1cc(-c2[nH]nc(C(=O)N3CC4CNCC4C3)c2C(C)C)cn2ncnc12 (stereo not drawn) [Example 59] |
| 4.95 | 9.10 | 8.95 | Cc1cc(-c2[nH]nc(C(=O)N[C@H]3CC[C@@H](N(CCC(C)(C)C)CCC(C)(C)C)CC3)c2C(C)C)cn2ncnc12 [Example 90] |
| 4.83 | 6.38 | 7.22 | CCN1CC(c2ccc(-c3n[nH]c(-c4cc(OC)c5ncnn5c4)c3C(C)C)cc2)C1 [Example 329] |
| 5.66 | 8.86 | 7.36 | Cc1cc(-c2[nH]nc(C(=O)N[C@H]3CC[C@H](NCC4CCOC4)CC3)c2C(C)C)cn2ncnc12 (stereo partly drawn) [Example 105] |
| 5.01 | 8.31 | 9.55 | CNC1CCC(c2n[nH]c(-c3cc(C)c4ncnn4c3)c2C(C)C)CC1 (single isomer, unassigned) [Example 295] |
| 4.55 | 7.25 | 7.64 | COc1cc(-c2[nH]nc(-c3cnc(C4CCN(CC(C)C)CC4)cn3)c2C(C)C)cn2ncnc12 [Example 379] |
| 4.47 | 8.46 | 9.14 | Cc1cc(-c2[nH]nc(C3CCC(N(C)C(=O)CN(C)C)CC3)c2C(C)C)cn2ncnc12 (stereo not drawn) [Example 296, 2-(dimethylamino)-N-(4-(4-isopropyl-5-(8-methyl-[1,2,4]triazolo[1,5-a]pyridin-6-yl)-1H-pyrazol-3-yl)cyclohexyl)-N-methylacetamide] |
| < 4.30 | 7.40 | 7.70 | COc1cc(-c2[nH]nc(-c3cnc(C4CCN(C(C)C)CC4)cn3)c2C(C)C)cn2ncnc12 [Example 384] |
| < 4.30 | 7.86 | 7.73 | COc1cc(-c2[nH]nc(-c3ccc(C4CCN(C)CC4)cc3)c2C(C)C)cn2ncnc12 [Example 314] |
| 5.84 | 9.05 | 8.58 | Cc1cc(-c2[nH]nc(C(=O)NC3CCN(CCC(C)C)CC3)c2C(C)C)cn2ncnc12 [Example 76] |
| 5.06 | 7.98 | 8.37 | Cc1cc(-c2[nH]nc(CNC3CCNCC3)c2C(C)C)cn2ncnc12 [Example 187] |
| 5.11 | 8.76 | 7.93 | Cc1cc(-c2[nH]nc(C(=O)N[C@H]3CC[C@@H](NCC4CCOC4)CC3)c2C(C)C)cn2ncnc12 (stereo partly drawn) [Example 87] |
| 5.53 | 8.30 | 8.66 | COc1cc(-c2[nH]nc(C(=O)NC3CCN(C4CCN(C(C)C)CC4)CC3)c2CC(F)(F)F)cn2ncnc12 [Example 199] |
| 5.18 | 8.64 | 8.24 | Cc1cc(-c2[nH]nc(C(=O)NC3CCN(C(C)C)CC3)c2C(C)C)cn2ncnc12 [Example 2] |
| 5.31 | 8.91 | 9.05 | Cc1cc(-c2[nH]nc(C(=O)N3CC[C@H](N(C)C)C3)c2C(C)C)cn2ncnc12 [Example 22] |
| 4.45 | 8.09 | 7.72 | Cc1cc(-c2[nH]nc(C3CCC(N(C)C(=O)C4CN(C(C)C)C4)CC3)c2C(C)C)cn2ncnc12 (single isomer, unassigned) [Example 304] |
| < 4.30 | 7.72 | 9.72 | CCN1CC(c2ccc(-c3n[nH]c(-c4cc(C)c5ncnn5c4)c3C(C)C)cc2)C1 [Example 325] |
| 5.84 | 8.44 | 8.85 | COc1ncc(CN[C@H]2CC[C@H](NC(=O)c3n[nH]c(-c4cc(C)c5ncnn5c4)c3C(C)C)CC2)cn1 [Example 114] |
| 5.27 | 8.27 | 8.22 | Cc1cc(-c2[nH]nc(-c3cncc(N(C)C)c3)c2C(C)C)cn2ncnc12 [Example 238] |
| 4.72 | 7.52 | 7.51 | CC(C)c1c(C(=O)NC2CCN(C(C)C)CC2)n[nH]c1-c1ccc(C#N)c2ncccc12 [Example 40] |
